Experimental findings from patent publication US20050053560A1, “Use of a composition containing extracts of Vitis vinifera and lycopersicum for protecting the skin” (Pharmaton S.A, priority 2003, published 2005) are described below.

For the experiment, the system named is normal human skin fibroblasts of the cell line NHDF. The experiment is described as follows: Fluoroscan process: antioxidant capacity of human skin fibroblasts. It counts as cell-based. The settings on record: NHDF cells, reference substance at 25 μM. An excerpt:
For the present cytotoxicity tests and the Fluoroscan process normal human skin fibroblasts of the cell line NHDF were used as the test system, depending on their availability.
The biologically active ingredients (standardised tomato extract, β-Carotene suspension, α-Tocopheryl acetate, standardized grape seed extract, ascorbic acid, selenium yeast) of Seresis® were first investigated in the above-mentioned amounts for possible cytotoxic effects and for their effect on the antioxidant capacity of human skin fibroblasts (NHDF). Apart from the pure mixture of active ingredients the entire contents of an active substance capsule were also used. In addition, a number of additives (oils, etc.) were also included in the test. Using two different in vitro skin models investigations were also carried out to see to what extent the protective effects of the active substances can be visualised. For this, the models were exposed to two different stressors (UV irradiation, activated immune cells).

Each structure is given as a SMILES string.

`Cc1c(C)c2c(c(C)c1O)CC[C@@](C)(CCC[C@H](C)CCC[C@H](C)CCCC(C)C)O2` [α-Tocopherol]: the “antioxidant potential compared with the carrier control” value worked out at 120%.
